biological target: Trx-6×His-BCL6 (human BCL6 BTB domain covering amino-acid sequence 5-129) (Homo sapiens (Human), UniProt P41182); assay: HTRF in vitro assay (BCL6 / BCOR-AF633 peptide); assay type: binding; conditions: result in words
Description: The % inhibition at each concentration was calculated by normalising FRET ratio to the appropriate high (DMSO with all reagents) and low (DMSO without BCL6) controls.

Activity in the HTRF assay, did not exhibit the desired activity:
Cn1c(=O)n(CCC(C)(C)O)c2cc(Nc3cc(Cl)ncc3C(F)F)ccc21 [5-((2-chloro-5-(difluoromethyl)pyridin-4-yl)amino)-3-(3-hydroxy-3-methylbutyl)-1-methyl-1,3-dihydro-2H-benzo[d]imidazol-2-one]
Cn1c(=O)n(CCC(C)(C)O)c2cc(Nc3c(Cl)cncc3Cl)ccc21 [5-((3,5-dichloropyridin-4-yl)amino)-3-(3-hydroxy-3-methylbutyl)-1-methyl-1,3-dihydro-2H-benzo[d]imidazol-2-one]
COCCNc1cc(Nc2ccc3c(c2)n(C)c(=O)n3C)n2nccc2n1 [5-((5-((2-methoxyethyl)amino)pyrazolo[1,5-a]pyrimidin-7-yl)amino)-1,3-dimethyl-1,3-dihydro-2H-benzo[d]imidazol-2-one]
COc1c(Cl)ncnc1Nc1ccc2c(c1)n(C)c(=O)n2C [5-((6-chloro-5-methoxypyrimidin-4-yl)amino)-1,3-dimethyl-1,3-dihydro-2H-benzo[d]imidazol-2-one]
Cn1c(=O)n(CCC(C)(C)O)c2cc(Nc3cc4nccn4cc3Cl)ccc21 [5-((6-chloroimidazo[1,2-a]pyridin-7-yl)amino)-3-(3-hydroxy-3-methylbutyl)-1-methyl-1,3-dihydro-2H-benzo[d]imidazol-2-one]
Cn1c(=O)n(CCC(C)(C)O)c2cc(Nc3nc(Cl)ncc3Cl)ncc21 [6-((2,5-dichloropyrimidin-4-yl)amino)-1-(3-hydroxy-3-methylbutyl)-3-methyl-1,3-dihydro-2H-imidazo[4,5-c]pyridin-2-one]
Cn1c(=O)n(CCC(C)(C)O)c2cc(Nc3ccncc3Cl)ncc21 [6-((3-chloropyridin-4-yl)amino)-1-(3-hydroxy-3-methylbutyl)-3-methyl-1,3-dihydro-2H-imidazo[4,5-c]pyridin-2-one]
Cn1c(=O)n(CCC(C)(C)O)c2cc(Nc3cc(-n4ccc(C(F)(F)F)n4)ncc3Cl)ncc21 [6-((5-chloro-2-(3-(trifluoromethyl)-1H-pyrazol-1-yl)pyridin-4-yl)amino)-1-(3-hydroxy-3-methylbutyl)-3-methyl-1,3-dihydro-2H-imidazo[4,5-c]pyridin-2-one]
Cn1c(=O)n(CCC(C)(C)O)c2cc(Nc3nc(-n4ccc(C(F)(F)F)n4)ncc3Cl)ncc21 [6-((5-chloro-2-(3-(trifluoromethyl)-1H-pyrazol-1-yl)pyrimidin-4-yl)amino)-1-(3-hydroxy-3-methylbutyl)-3-methyl-1,3-dihydro-2H-imidazo[4,5-c]pyridin-2-one]
Cn1c(=O)n(CCC(C)(C)O)c2cc(Nc3cc(N4CCC(F)(F)CC4)ncc3Cl)ncc21 [6-((5-chloro-2-(4,4-difluoropiperidin-1-yl)pyridin-4-yl)amino)-1-(3-hydroxy-3-methylbutyl)-3-methyl-1,3-dihydro-2H-imidazo[4,5-c]pyridin-2-one]
Cn1c(=O)n(CCC(C)(C)O)c2cc(Nc3nc(N4CCC(F)(F)CC4)ncc3Cl)ncc21 [6-((5-chloro-2-(4,4-difluoropiperidin-1-yl)pyrimidin-4-yl)amino)-1-(3-hydroxy-3-methylbutyl)-3-methyl-1,3-dihydro-2H-imidazo[4,5-c]pyridin-2-one]
